{
  "source": "patent US20200015478A1",
  "about": "“ANTIBACTERIAL COMPOSITION CONTAINING CARYOLAN-1-OL” (INDUSTRY-ACADEMIC COOPERATION FOUNDATION GYEONGSANG …, priority 2016, published 2020)",
  "system": "Botrytis cinerea",
  "assay": "Mycelium growth rate of Botrytis cinerea with synthesized caryolan-1-ol vapour from paper disc",
  "format": "cell-based",
  "settings": "Botrytis cinerea on PDA, 10 μl acetone solution on paper disc, sealed, 27° C., 4 days, FIG. 6",
  "method": "Next, in order to verify the antibacterial activity of the synthesized caryolan-1-ol, PDA (Potato starch 4 g, dextrose 20 g, Agar 20 g with respect to 1 liter) medium was prepared so as to allow 60 mm Petri dishes to have 12 ml space. Botrytis cinerea was inoculated with a radius of 2 mm Based on the concentration at which caryolan-1-ol was completely gaseous, caryolan-1-ol was dissolved in acetone, and then the solution was treated to the paper disc placed on a lid at 10 μl each. After sealing, they were cultured at 27° C., and the growth rate of mycelium was measured for 4 days. The growth rate for the acetone treatment group was determined.",
  "data": [
    {"smiles": "CC12CCCC(O)(C1)C1CC(C)(C)C1CC2", "note": "(stereo not shown) [caryolan-1-ol]", "values": [
      {"measurement": "growth rate of mycelium relative to acetone treatment group", "value": "significantly inhibited the growth"}
    ]}
  ]
}
